Where a chain is given by its changes, count along the chain named.
Legend:
LinA-type1 = target: T1, LinA-type1 (Sphingobium indicum, UniProt P51697); experiment: product formation by chiral GC-ECD; format: biochemical; details: 50 mM Tris-HCl pH 8.0, 10% glycerol, 30 °C
T1 construct: full length 156 residues, pET-26b(+) NdeI/XhoI (C-terminal His tag), E. coli BL21(DE3), Ni-NTA purified
T1 sequence (P51697 1-156): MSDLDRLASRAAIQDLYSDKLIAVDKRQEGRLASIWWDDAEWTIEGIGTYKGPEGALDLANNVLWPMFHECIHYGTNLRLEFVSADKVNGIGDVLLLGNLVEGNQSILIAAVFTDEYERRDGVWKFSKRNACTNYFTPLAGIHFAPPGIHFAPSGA

LinA-type2 = target: T2, LinA-type2 (uncultured organism, UniProt B5ANU3); experiment: product formation by chiral GC-ECD; format: biochemical; details: 50 mM Tris-HCl pH 8.0, 10% glycerol, 30 °C
T2 construct: natural variant differing from LinA-type1 at ten positions (incl. Q20, C96, G131, M133); pET-26b(+) NdeI/XhoI (C-terminal His tag), E. coli BL21(DE3), Ni-NTA purified
T2 sequence (B5ANU3 1-156): T1 sequence (P51697 1-156) with K20Q, A23G, F68Y, C71T, L96C, F113Y, D115N, R129L, A131G, T133M

Cl[C@H]1[C@H](Cl)[C@@H](Cl)[C@@H](Cl)[C@H](Cl)[C@H]1Cl [γ-HCH]
product formation by chiral GC-ECD (LinA-type1): incubations of LinA-type1 with γ-HCH led to the formation of only γ-PCCH-2 | product formation by chiral GC-ECD (LinA-type2): incubations with LinA-type2 led to the formation of a mixture

Source: paper PMC5422493, “Important amino acid residues of hexachlorocyclohexane dehydrochlorinases (LinA) for enantioselective transformation of hexachlorocyclohexane isomers” (Biodegradation, 2017)
